Reference: US5401771A, “Method of combatting household insects” (priority 1992, dated 1995)

What was measured:
housefly = assay: Study of the killing effect on the housefly (direct spraying, Kearns and March chamber); assay type: in vivo; details: for KT50 (time where 50% of the insects were killed): 4-day old female houseflies, direct spraying, dose 0.25 g/l, Isopar L with 5% acetone
Experimental: A. Study of the killing effect on the housefly.
The insects used were 4-day old female houseflies and the operation was carried out by direct spraying at a concentration of 0.25 g/1 in a Kearns and March chamber. The tested product was dissolved in Isopar L (petroleum solvent) with 5% acetone. 2 ml of solution were sprayed per second and 50 insects were used per treatment Checks were carried out every minute for 10 minutes, then after 15 minutes. The (KT50) time in minutes where 50% of the insects were killed was determined and the results are in Table I.

[1] = Acute toxicity on mammals by intravenous route; assay type: in vivo, rats; details: rat, in vivo, rats, vehicle PEG 300, read-out: LD50 I.R. (intravenous route)
Experimental: (§1) C. Acute toxicity on mammals
(§2) type: rats, vehicle: PEG 300.
(§3) The results were expressed in LD50 mg/kg and the results obtained are as follows: […]

rats [2] = assay: Acute toxicity on mammals by intravenous route; assay type: in vivo; details: relative to C (cis E)
Experimental: as §1, §2, §3

[3] = Acute toxicity on mammals by oral route; assay type: in vivo, rats; details: rat, in vivo, rats, vehicle corn oil, read-out: LD50 O.R. (oral route)
Experimental: as §1
(§4) type: rats, vehicle: corn oil.
as §3

rats [4] = assay: Acute toxicity on mammals by oral route; assay type: in vivo; details: relative to C (cis E)
Experimental: as §1, §4, §3

[5] = test system: cockroaches (Blattella germanica); assay: Study of the knock-down effect on cockroaches (direct spraying); assay type: in vivo; details: for percentage of cockroaches knocked down at 100 µg/mL / percentage of cockroaches knocked down at 500 µg/mL: Blattella germanica, 5 min, after 5 minutes, 12-week old males, read-out: KD (percentage of cockroaches knocked down), printed % KILLED; for percentage of cockroaches knocked down at 100 µg/mL: 100 mg/l; for percentage of cockroaches knocked down at 500 µg/mL: 500 mg/l
Experimental: B. Study of the knock-down effect on cockroaches
The test was carried out on 12-week old male cockroaches (Blattella germanica) and the operation was carried out by direct spraying in a 13.5 cm diameter glass chamber. The product tested was dissolved in Isopar and 0.75 ml of solution was sprayed for 2.5 seconds on 20 cockroaches having been placed beforehand in the chamber. The KD (percentage of cockroaches knocked down) after 5 minutes at a dose of 500 mg/1 was determined and the products corresponding to 100% of KD insects at this does were evaluated at a dose of 100 mg/1 by the same protocol and the results are in Table II.

[6] = conclusion in words, equivalent notably to C (cis E)

Row | Compound | KT50 (time where 50% of the insects were killed) (housefly) [min] | LD50 [1] [mg/kg] | toxicity on mammals lower than that of C (cis E), intravenously (rats [2]) | killing activity on flies (housefly; [6]) | LD50 [3] [mg/kg] | toxicity on mammals lower than that of C (cis E), orally (rats [4]) | percentage of cockroaches knocked down at 100 µg/mL [5] [%] | killing activity on cockroaches [5, 6] | percentage of cockroaches knocked down at 500 µg/mL [5] [%]
1 | C=CCC1=C(C)C(OC(=O)[C@@H]2[C@@H](C=C(C)C)C2(C)C)CC1=O (stereo partly drawn) [Bioallethrin] | 10 |  |  |  |  |  |  |  | 
2 | COC(=O)/C(F)=C/[C@@H]1[C@@H](C(=O)O[C@H](C#N)c2cccc(Oc3ccccc3)c2)C1(C)C [Product A, (S) α-cyano-3-phenoxy-benzyl(1R, trans) 2,2-dimethyl-3-[(ΔZ) 2-fluoro-3-oxo-3-methoxy-propenyl]-cyclopropane carboxylate] | 2.7 | ~10 | at least 20 times | good killing activity | > 2000 | at least 20 times | 100 | good killing activity | 
3 | COC(=O)/C(F)=C\[C@@H]1[C@@H](C(=O)O[C@H](C#N)c2cccc(Oc3ccccc3)c2)C1(C)C [Product B] |  | 2.5 to 5 |  |  | > 200 |  | 47 |  | 
4 | COC(=O)/C(F)=C\[C@H]1[C@@H](C(=O)O[C@H](C#N)c2cccc(Oc3ccccc3)c2)C1(C)C [Product C] | 2.7 | 0.1 to 0.5 |  |  | ~100 |  | 95 |  | 
5 | COC(=O)/C(F)=C/[C@H]1[C@@H](C(=O)O[C@H](C#N)c2cccc(Oc3ccccc3)c2)C1(C)C [Product D] | 3.7 | 2.5 to 7.5 |  |  | > 200 |  |  |  | 90
6 | CC(C)=CC1C(C(=O)OCN2C(=O)C3=C(CCCC3)C2=O)C1(C)C (stereo not drawn) [TETRAMETHRIN, Tetramethrin] |  |  |  |  |  |  |  |  | 70
